# Calls of active or inactive are those of the source. No rule for the calls is given here.
# Assay: blockers of an Epstein-Barr virus protein-peptide interaction – biochemical, fluorescence polarization, dose response (AID 1419)
# Conditions: cell-free protein-peptide binding, 2 h; for fold change: measured here: P channel fold over control, at 54 µM
Structure (SMILES),IC50,fold change
COc1ccc(C2C=C(c3ccc(Cl)cc3)Nc3nc(NC(C)=O)nn32)cc1 (stereo unspecified),5.59 µM,3.32
CCSc1nnc(-c2sc3nnc(-c4ccccc4)c(-c4ccccc4)c3c2N)o1,2.2 µM,36.9
O=[N+]([O-])c1cccc(-c2cn3nc(-c4ccccc4)c(-c4ccccc4)nc3n2)c1,5.71 µM,6.61
O=C(OCCN1C(=O)c2cccc3c(N4CCOCC4)ccc(c23)C1=O)c1cccc(Cl)c1,2.52 µM,56.6
CCOCCCNc1nc2c(C)cccn2c(=O)c1/C=C1\SC(=S)N(C(C)CC)C1=O (stereo unspecified),13.2 µM,6.84
CC(C)(C)c1ccc(C(=O)Nc2cccc3c(=O)[nH][nH]c(=O)c23)cc1,5.97 µM,3.72
C/C(=N/OC(=O)c1c(-c2c(Cl)cccc2Cl)noc1C)c1cnccn1,> 54 µM (inactive),0.997
Cc1ccc(CSc2nnc3c(n2)OC2(Nc4ccccc4-3)C(=O)Nc3ccc(F)cc32)cc1 (stereo unspecified),6.29 µM,16.9
CCOc1ccc(-c2c(C#N)c(N)nc3sc(C(=O)c4ccccc4)c(N)c23)cc1,> 54 µM (inactive),4.62
Cc1nn(C)cc1N1C(=O)c2cccc3c(N)ccc(c23)C1=O,< 0.42 µM,109
Cc1cc(C=C2C(=O)c3ccccc3C2=O)c(C)n1-c1ccccc1,5.56 µM,9.41
N#C/C(=C(/O)c1ccc(-c2cccc([N+](=O)[O-])c2)o1)c1nc2ccccc2s1,7.24 µM,1.09
CC1(C)CC(=O)C2=C(C1)OC(N)=C(C#N)[C@@H]2c1ccccc1[N+](=O)[O-],2.27 µM,4.78
O=C(N/N=C/c1ccccc1Cl)c1nc2ccc([N+](=O)[O-])cc2c(=O)[nH]1,> 54 µM (inactive),0.977
O=C(NCCCn1ccnc1)c1ccc2c(c1)OCCO2,> 54 µM (inactive),1.03
C=CCn1c(C)cc(C(=O)COC(=O)COc2ccccc2C#N)c1C,> 54 µM (inactive),1.04
CC(=O)Oc1ccc2c(c1)O/C(=C\c1ccncc1)C2=O,3.08 µM,10.9
Cc1cccc2c3nc4ccccc4nc3n(CCCN3C(=O)c4ccccc4C3=O)c12,15.9 µM,3.01
COc1ccc(NC(=O)CCl)cn1,2.57 µM,2.89
O=C(CSc1nc(-c2ccccc2)nc2c1Cc1ccccc1O2)Nc1ccc(C(=O)O)cc1,1.64 µM,1.12

Structure (SMILES),IC50,fold change
Cc1c(N=C2N=C(NC(=O)c3ccc(F)cc3)c3ccccc32)c(=O)n(-c2ccccc2)n1C,6.56 µM,6.09
CC(C)Nc1nc(Cl)nc(N(C#N)CN2C(=O)c3ccccc3S2(=O)=O)n1,> 54 µM (inactive),0.923
O=C(OCCN1C(=O)c2cccc3c(N4CCOCC4)ccc(c23)C1=O)c1ccccc1Cl,2.87 µM,65.4
Cn1c(=O)c(Nc2ccc(Cl)cc2)c2c3c(cccc31)C(=O)c1ccccc1-2,< 0.42 µM,25.4
CC(=O)OCCCNc1cc(Sc2nc3ccccc3s2)c2nonc2c1[N+](=O)[O-],9.79 µM,4.44
COc1ccc(S(=O)(=O)c2c(N)n(Cc3ccco3)c3nc4ccccc4nc23)cc1,9.62 µM,1.74
C=CCN1CC(c2nc3ccccc3n2CCOc2ccccc2)CC1=O (stereo unspecified),34.2 µM (inactive),1.08
COc1ccccc1NC(=O)/C(C#N)=C/c1cc([N+](=O)[O-])ccc1N1CCCC1,4.7 µM,60.1
Cc1nnc(N2C(=O)C(O)=C(C(=O)c3ccco3)C2c2ccc(C(C)C)cc2)s1 (stereo unspecified),2.2 µM,3.11
O=C(NCc1ccco1)c1c2c(nc3ccccc13)CCC2,> 54 µM (inactive),1.05
CN(C)c1ccc(/C=C(\C#N)C(=O)Nc2nc3c(s2)CCN(Cc2ccccc2)C3)cc1,1.21 µM,19.9
CC(C)(C)NC(=O)c1sccc1C(=O)O,> 54 µM (inactive),1.06
CC(C)N(C(=O)C[n+]1ccc(/C=N/O)cc1)C(C)C,> 54 µM (inactive),1.05
O=C1NC(=S)/C(=C\c2ccc(-c3ccccc3Cl)o2)S1,26.9 µM,1.59
CCOC(=O)c1c(C)[nH]c(C)c1C(=O)CSc1nc2ccccc2n1CC,> 54 µM (inactive),1.24
Fc1ccccc1C(c1nnnn1C1CCCC1)N1CCN(Cc2ccccc2)CC1 (stereo unspecified),> 54 µM (inactive),1.05
COc1ccc2c3c(cccc13)C(=O)N(O)C2=O,4.72 µM,2.23
O=C(NNC(=O)c1sccc1-n1cccc1)c1cccc(Cl)c1,> 54 µM (inactive),0.963
CCN(CC)c1ccc(/C=C/c2cc(-c3ccccc3)c3ccccc3n2)cc1,13.5 µM,80.7
COc1ccc(NC(=O)N(CCc2ccccc2)Cc2cc3c(C)cc(C)cc3[nH]c2=O)cc1,> 54 µM (inactive),0.987

Structure (SMILES),IC50,fold change
Cc1cc(=O)oc2c(CN3CCC(C)CC3)c(O)c(Cl)cc12,2.42 µM,2.16
Nc1ccc(-c2nc3ccc(C(=O)O)cc3s2)cc1,> 54 µM (inactive),1
CCn1c(CSc2nccn2C)nc2cc(C(=O)O)ccc21,13 µM,2.34
COc1ccc2nc(N3CCCC3)c(C#N)cc2c1,< 0.42 µM,16.7
Nc1ccc2nonc2c1[N+](=O)[O-],< 0.42 µM,41
COc1ccc(-c2c(C#N)c(N)nc3sc(C(=O)c4ccccc4)c(N)c23)cc1,6.7 µM,7.69
COc1ccc(CCNc2nc(-c3cccnc3)cs2)cc1OC,> 54 µM (inactive),1.04
Cc1nc2ccccc2n2c(O)c(CC(=O)O)cc12,> 54 µM (inactive),7.32
N#C/C(=C\c1sc(N2CCOCC2)nc1-c1ccccc1)C(=O)Nc1cccc2ccccc12,30.8 µM (inactive),3.26
CCCN1CC=C2C(C#N)=C(N)C(C#N)(C#N)C(c3cccc(OC)c3OC)C2C1 (stereo unspecified),1.28 µM,7.4
O=C1CCN2C=Nc3cccc4ccc1c2c34,< 0.42 µM,171
O=C(CSc1ccsc1[N+](=O)[O-])Nc1cc(F)ccc1F,> 54 µM (inactive),1.05
CN1CCCc2cc3c(C(F)(F)F)cc(=O)oc3nc21,< 0.42 µM,18.4
O=C(Nc1ccccc1F)C(=Cc1sc(N2CCOCC2)nc1-c1ccccc1)C(=O)Nc1ccccc1F,5.71 µM,7.63
COc1ccc(OC)c2c1C(=O)c1ccccc1C2=O,< 0.42 µM,41.6
O=S(=O)(Nc1nc2ccccc2nc1N1CCN(c2ccccn2)CC1)c1ccc(Cl)cc1,> 54 µM (inactive),2.14
COc1ccc(C(=O)c2sc3nc(C)cc(-c4cccs4)c3c2N)cc1,10.9 µM,10.2
CC(C)(C)N1CC(c2nc3ccccc3n2CCOc2ccccc2)CC1=O (stereo unspecified),15.4 µM,1.08

# — PubChem BioAssay AID1419 (Emory University Molecular Libraries Screening Center, 2008)
